SMILES strings stand for the structures. “And” between values parts separate entries of the source, which are not always exact repeats. Equal entries are not always repeated.

Consider three compounds from article PMC5119973 (Cancer Medicine, 2016).

The target of series [1] is T1, ABL1-np (Homo sapiens, UniProt P00519).
T1 construct: purchased DiscoveRx (KINOMEscan service)
The series can be described thus: KINOMEscan active-site competitive binding assay. As to conditions: ABL1-np (not phosphorylated); slash = two separate measurements.

Series [2] has as its target T2, CDKL2 (Homo sapiens, UniProt Q92772).
T2 construct: purchased DiscoveRx (KINOMEscan service)
T2 sequence (Q92772 1-493): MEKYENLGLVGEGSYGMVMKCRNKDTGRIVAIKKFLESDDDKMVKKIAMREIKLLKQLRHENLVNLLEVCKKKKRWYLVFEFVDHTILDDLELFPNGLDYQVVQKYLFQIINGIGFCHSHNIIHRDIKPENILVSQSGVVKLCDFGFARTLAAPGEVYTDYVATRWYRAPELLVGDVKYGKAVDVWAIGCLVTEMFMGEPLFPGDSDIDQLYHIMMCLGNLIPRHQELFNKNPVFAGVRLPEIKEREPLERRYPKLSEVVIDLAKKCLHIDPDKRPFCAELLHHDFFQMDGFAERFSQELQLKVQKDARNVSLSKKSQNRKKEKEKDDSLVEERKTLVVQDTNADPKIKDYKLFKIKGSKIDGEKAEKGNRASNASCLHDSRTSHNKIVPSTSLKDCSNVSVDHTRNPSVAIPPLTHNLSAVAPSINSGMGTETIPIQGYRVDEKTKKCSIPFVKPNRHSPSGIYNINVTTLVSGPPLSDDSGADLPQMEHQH
The experiment in a line: KINOMEscan active-site competitive binding assay. To be noted: slash = two separate measurements.

Series [3] has as its target T3, DDR2 (Homo sapiens, UniProt Q16832).
T3 construct: purchased DiscoveRx (KINOMEscan service)
T3 sequence (Q16832 22-855): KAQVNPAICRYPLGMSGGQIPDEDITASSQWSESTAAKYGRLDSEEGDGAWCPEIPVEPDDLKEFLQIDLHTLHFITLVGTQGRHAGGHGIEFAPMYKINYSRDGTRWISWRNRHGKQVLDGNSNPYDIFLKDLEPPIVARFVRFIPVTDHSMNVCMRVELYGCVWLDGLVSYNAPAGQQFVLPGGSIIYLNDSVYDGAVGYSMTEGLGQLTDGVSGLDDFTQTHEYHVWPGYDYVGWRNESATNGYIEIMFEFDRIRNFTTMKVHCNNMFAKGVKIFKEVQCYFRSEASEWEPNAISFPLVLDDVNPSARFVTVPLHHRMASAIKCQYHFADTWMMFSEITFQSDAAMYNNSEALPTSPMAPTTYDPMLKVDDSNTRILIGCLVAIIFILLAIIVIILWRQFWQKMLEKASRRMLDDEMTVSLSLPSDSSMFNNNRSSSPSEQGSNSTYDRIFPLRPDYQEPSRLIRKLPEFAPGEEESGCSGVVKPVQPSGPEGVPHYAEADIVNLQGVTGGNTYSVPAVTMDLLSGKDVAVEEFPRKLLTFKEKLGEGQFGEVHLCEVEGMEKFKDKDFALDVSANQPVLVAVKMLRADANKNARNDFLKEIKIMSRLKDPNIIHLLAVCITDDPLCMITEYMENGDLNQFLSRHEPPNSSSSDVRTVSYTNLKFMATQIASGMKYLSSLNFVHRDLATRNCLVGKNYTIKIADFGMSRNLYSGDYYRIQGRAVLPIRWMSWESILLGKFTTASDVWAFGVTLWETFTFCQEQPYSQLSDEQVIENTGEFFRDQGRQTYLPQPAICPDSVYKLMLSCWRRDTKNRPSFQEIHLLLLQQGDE
The series can be described thus: KINOMEscan active-site competitive binding assay. As to conditions: slash = two separate measurements.

The target of series [4] is T4, ERK8 (Homo sapiens, UniProt Q8TD08).
T4 construct: purchased DiscoveRx (KINOMEscan service)
T4 sequence (Q8TD08 1-544): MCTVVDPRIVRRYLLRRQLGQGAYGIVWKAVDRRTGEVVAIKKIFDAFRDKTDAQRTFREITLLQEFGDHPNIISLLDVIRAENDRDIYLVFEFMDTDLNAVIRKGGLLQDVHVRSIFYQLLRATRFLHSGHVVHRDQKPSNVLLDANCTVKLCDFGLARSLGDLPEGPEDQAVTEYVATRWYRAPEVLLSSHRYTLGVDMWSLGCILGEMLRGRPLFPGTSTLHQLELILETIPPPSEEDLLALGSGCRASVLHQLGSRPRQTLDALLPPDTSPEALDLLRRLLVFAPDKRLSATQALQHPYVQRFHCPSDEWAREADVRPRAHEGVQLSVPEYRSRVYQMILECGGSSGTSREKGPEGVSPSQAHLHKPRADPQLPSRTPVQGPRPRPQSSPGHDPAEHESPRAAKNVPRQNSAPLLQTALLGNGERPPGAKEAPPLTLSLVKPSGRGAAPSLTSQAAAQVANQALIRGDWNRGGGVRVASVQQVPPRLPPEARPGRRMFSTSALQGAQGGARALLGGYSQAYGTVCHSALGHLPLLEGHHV
The experiment in a line: KINOMEscan active-site competitive binding assay. To be noted: slash = two separate measurements.

The target of series [5] is T5, MAP4K4 (Homo sapiens, UniProt O95819).
T5 construct: purchased DiscoveRx (KINOMEscan service)
The experiment in a line: KINOMEscan active-site competitive binding assay. As to conditions: slash = two separate measurements.

Series [6] deals with T6, MUSK (Homo sapiens, UniProt O15146).
T6 construct: purchased DiscoveRx (KINOMEscan service)
T6 sequence (O15146 24-869): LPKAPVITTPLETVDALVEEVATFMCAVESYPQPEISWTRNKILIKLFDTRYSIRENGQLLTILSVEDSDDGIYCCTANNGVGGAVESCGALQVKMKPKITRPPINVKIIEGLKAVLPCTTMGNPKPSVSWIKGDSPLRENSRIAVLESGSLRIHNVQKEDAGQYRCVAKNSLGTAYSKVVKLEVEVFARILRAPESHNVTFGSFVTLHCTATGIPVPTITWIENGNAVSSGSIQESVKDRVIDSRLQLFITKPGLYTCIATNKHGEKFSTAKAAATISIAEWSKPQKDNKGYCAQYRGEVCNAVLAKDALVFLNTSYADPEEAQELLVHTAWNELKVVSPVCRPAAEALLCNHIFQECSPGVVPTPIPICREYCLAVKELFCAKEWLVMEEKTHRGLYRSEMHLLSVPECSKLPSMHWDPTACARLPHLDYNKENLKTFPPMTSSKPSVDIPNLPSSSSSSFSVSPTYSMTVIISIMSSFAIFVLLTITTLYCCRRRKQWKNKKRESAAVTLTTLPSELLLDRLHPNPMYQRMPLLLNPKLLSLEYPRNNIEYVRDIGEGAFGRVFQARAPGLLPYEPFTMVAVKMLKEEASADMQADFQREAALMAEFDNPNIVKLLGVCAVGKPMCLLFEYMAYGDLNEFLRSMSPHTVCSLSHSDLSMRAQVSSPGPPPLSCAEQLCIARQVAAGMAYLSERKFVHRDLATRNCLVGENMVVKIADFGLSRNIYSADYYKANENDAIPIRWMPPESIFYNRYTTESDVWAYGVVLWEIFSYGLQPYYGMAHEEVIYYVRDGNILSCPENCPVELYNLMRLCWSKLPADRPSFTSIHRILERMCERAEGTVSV
The experiment in a line: KINOMEscan active-site competitive binding assay. As to conditions: slash = two separate measurements.

A short description of series [7]: Plasma protein binding in vitro (Transil), mouse plasma. The series is classed as in vitro ADME. As for the experimental part: A radioactivity analysis was performed by liquid scintillation counting. […] All compounds were tested for stability at the incubation conditions used.
The mark [8] stands for this setting: mouse (CD‐1), male, plasma, arithmetic mean ± SD.

T1 sequence (P00519 whole entry): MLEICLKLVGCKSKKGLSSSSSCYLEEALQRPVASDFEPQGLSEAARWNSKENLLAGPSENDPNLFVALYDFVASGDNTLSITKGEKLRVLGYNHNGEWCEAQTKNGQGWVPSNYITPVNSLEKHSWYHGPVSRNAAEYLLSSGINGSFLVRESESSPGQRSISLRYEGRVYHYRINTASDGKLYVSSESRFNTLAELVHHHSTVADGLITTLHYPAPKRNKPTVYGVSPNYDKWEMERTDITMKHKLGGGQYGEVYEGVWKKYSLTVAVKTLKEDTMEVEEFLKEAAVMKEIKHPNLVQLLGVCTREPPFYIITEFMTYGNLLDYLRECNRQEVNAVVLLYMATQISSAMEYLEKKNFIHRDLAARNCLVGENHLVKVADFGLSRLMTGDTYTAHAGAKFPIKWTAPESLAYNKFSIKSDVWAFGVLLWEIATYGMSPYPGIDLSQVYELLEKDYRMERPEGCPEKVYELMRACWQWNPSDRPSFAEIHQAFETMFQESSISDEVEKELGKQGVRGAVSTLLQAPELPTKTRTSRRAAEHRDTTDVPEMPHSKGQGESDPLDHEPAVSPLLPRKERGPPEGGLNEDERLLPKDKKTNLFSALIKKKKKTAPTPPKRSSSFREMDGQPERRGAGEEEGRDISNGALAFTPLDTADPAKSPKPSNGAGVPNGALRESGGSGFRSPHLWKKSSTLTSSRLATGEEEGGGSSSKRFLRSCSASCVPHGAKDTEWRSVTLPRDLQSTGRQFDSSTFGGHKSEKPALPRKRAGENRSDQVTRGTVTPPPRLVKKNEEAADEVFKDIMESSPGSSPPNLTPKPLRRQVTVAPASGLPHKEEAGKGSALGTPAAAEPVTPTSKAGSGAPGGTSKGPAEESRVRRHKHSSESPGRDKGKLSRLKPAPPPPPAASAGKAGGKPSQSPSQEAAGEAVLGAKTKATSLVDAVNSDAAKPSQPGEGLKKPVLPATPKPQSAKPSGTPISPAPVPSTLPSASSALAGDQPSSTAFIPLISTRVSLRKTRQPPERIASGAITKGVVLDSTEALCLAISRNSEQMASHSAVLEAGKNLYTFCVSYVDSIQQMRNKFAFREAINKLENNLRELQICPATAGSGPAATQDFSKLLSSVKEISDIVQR
T5 sequence (O95819 whole entry): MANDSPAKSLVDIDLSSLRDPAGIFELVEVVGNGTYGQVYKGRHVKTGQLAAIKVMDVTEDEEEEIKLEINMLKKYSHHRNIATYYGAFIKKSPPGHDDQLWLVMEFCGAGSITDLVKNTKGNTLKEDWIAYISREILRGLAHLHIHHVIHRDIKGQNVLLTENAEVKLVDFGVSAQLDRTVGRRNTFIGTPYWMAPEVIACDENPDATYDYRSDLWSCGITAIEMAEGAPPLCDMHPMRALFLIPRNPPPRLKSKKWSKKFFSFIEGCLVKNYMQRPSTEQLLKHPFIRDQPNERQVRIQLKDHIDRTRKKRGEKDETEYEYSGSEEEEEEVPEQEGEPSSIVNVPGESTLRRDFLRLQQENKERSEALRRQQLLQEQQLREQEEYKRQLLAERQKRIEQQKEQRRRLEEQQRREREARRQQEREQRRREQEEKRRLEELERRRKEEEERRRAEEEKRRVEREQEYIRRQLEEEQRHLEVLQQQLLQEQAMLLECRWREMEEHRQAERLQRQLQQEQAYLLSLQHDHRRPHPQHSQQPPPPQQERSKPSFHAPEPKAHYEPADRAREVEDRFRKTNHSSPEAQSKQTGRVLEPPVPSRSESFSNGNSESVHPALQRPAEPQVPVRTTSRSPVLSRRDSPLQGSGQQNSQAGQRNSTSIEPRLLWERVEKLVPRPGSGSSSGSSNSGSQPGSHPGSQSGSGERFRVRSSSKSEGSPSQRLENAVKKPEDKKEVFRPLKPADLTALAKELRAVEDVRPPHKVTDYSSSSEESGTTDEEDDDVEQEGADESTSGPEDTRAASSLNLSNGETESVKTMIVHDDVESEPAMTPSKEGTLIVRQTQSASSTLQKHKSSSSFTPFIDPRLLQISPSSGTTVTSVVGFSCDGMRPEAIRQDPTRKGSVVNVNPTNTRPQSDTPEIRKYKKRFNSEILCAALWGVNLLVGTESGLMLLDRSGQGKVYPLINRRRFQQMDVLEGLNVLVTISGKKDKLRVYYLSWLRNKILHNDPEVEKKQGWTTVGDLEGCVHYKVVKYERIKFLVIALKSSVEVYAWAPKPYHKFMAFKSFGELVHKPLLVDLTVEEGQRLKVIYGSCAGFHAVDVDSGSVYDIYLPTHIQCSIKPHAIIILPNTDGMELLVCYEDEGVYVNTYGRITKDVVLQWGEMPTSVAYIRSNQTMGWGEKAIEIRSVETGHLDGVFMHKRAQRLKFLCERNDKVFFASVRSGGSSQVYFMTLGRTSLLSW

For `CNC(=O)c1cc(Oc2ccc(NC(=O)Nc3ccc(Cl)c(C(F)(F)F)c3)c(F)c2)cc[n+]1[O-]` [M‐2], the Kd – broadly, the free concentration of one partner at which half of the binding sites on the other are occupied at equilibrium, for simple one-to-one binding – is 23 nM in series [1]; 76 nM in series [2]; 5.3 nM in series [3]; 16 nM in series [4]; 42 nM in series [5]; 140 nM in series [6]. In addition, the “Unbound fraction (%)” value in series [7] (setting [8]) came to 0.888 ± 0.033%. Further, in series [7] (murine plasma), the “Proportion of protein‐bound drug” value is “more than 99%”. The “Unbound fraction, fold higher than that of regorafenib” value in series [7] (murine plasma) was “approximately 1.5 fold”.

Turning to `CNC(=O)c1cc(Oc2ccc(NC(=O)Nc3ccc(Cl)c(C(F)(F)F)c3)c(F)c2)ccn1` [Regorafenib, reference compound], the Kd in series [1] is 32 nM and 16 nM; in series [2] it was 48 nM and 58 nM; in series [3], 9.2 nM and 9.7 nM; in series [4] it was 25 nM and 17 nM; in series [5] it was 450 nM and 400 nM; in series [6] it was 68 nM and 67 nM. In addition, in series [7] (male, CD-1, mouse, plasma, mouse (CD‐1), arithmetic mean ± SD), the fraction unbound – broadly, free concentration divided by total concentration – was around 0.006. The “Unbound fraction (%)” value in series [7] (setting [8]) worked out at 0.575 ± 0.039%. Also, in series [7] (murine plasma), the “Proportion of protein‐bound drug” value is recorded as “more than 99%”.

Regarding `NC(=O)c1cc(Oc2ccc(NC(=O)Nc3ccc(Cl)c(C(F)(F)F)c3)c(F)c2)cc[n+]1[O-]` [M‐5], the Kd in series [1] was 20 nM; in series [2] it was 1100 nM; in series [3], 2.5 nM; in series [4], 26 nM; in series [5], 89 nM; in series [6] it was 140 nM. The “Unbound fraction (%)” value in series [7] (setting [8]) was determined as 0.412 ± 0.041%. Besides, the “Proportion of protein‐bound drug” value in series [7] (murine plasma) is on record as “more than 99%”.
